In patent publication US12163953B2, “P-phenylene ethynylene compounds as bioactive and detection agents” (STC.UNM, priority 2014, dated 2024):
Read-outs that look alike come from different tables or passages of the source.

What was measured:
HEWL amyloid fibrils = molecular target: T1, HEWL amyloid fibrils (Gallus gallus, UniProt P00698); test: Induced circular dichroism of PE-amyloid complexes; assay type: binding, hen; conditions: PEs 10 μM, HEWL 10 μM monomer basis
T1 construct: Lyophilized HEWL was dissolved at 10 mg/mL in 10 mM pH 3 sodium citrate buffer with 0.1 M NaCl; purchased Sigma-Aldrich; host or cells: hen egg white; fibrillised in house (pH 3, 70 °C, stirred)
Method: Circular dichroism measurements were performed to determine if the intrinsic chirality of the HEWL fibrils was transferred to the PE chromophore by a chiral backbone twist or an “excitonic” chiral supramolecular aggregate. CD spectroscopy (CPEs in PB with HEWL monomer and with HEWL amyloid; performed for (a): PE1+; (b): PE1−; (c): PE2+; (d): PE3+; PEs 10 μM, HEWL 10 μM monomer basis/0.5 mg/mL) indicated induced circular dichroism of PEs when bound to HEWL amyloids. As expected, no PE had optical activity by itself in phosphate buffer solution and none of the PEs had any CD with HEWL monomer, including PE1−. […] PE2+ and PE3+ gave rise to similar CD spectra, with more intense bands in the spectrum for PE3+.
PEs and protein samples were diluted in phosphate buffer, gently vortexed, and read in a 1 mm pathlength quartz CD cuvette using an Aviv 410 CD spectrometer (Aviv Biomedical, Lakewood, NJ), 15 s averaging time. A blank spectrum (PB only) was subtracted from each sample to remove background activity. Error bars are standard deviation over multiple reads of a single sample as reported by the instrument.

HEWL amyloids = molecular target: T2, HEWL amyloids (Gallus gallus, UniProt P00698); test: Excitation and emission spectra of PEs with HEWL amyloids; assay type: binding, hen; conditions: PE 500 nM, HEWL amyloid 5 μM monomer basis
T2 construct: Lyophilized HEWL was dissolved at 10 mg/mL in 10 mM pH 3 sodium citrate buffer with 0.1 M NaCl; purchased Sigma-Aldrich; host or cells: hen egg white; fibrillised in house (pH 3, 70 °C, stirred)
Method: Excitation and emission spectra of PEs in phosphate buffer alone, with monomeric HEWL and with HEWL amyloids (8 h incubated) are shown in FIGS. 18A-H, and relevant photophysical properties are summarized in Table 1. FIGS. 18A-H illustrate excitation (A, B, C, D) and emission (right; E, F, G. H) spectra of PEs (A, E: PE1+; B, F: PE1−; C, G: PE2+; D, H: PE3+) in phosphate buffer (PB, pH 7.4, 10 mM) alone (long dashed line) with HEWL monomers (short dashed line) and with HEWL amyloids (solid line); PE concentration: 500 nM, protein concentration: 5 μM monomer basis/0.25 mg/mL; emission and excitation wavelengths, respectively, were chosen as shown in Table 1 for each sample. A 10:1 molar ratio of protein to PE was used for these experiments. Absorbance spectra were taken, but background light scattering from insoluble amyloid aggregates made them difficult to interpret, so “fluorescence detected absorbance” in the form of excitation spectra was used instead. Normalized excitation and emission spectra, in which peak shifts and lineshape changes of spectra were somewhat easier to visualize, were used. […] PE1+ (FIG. 18E) had no change in wavelength or lineshape of emission spectrum, just a large increase in intensity when mixed with amyloids. The excitation spectra (FIGS. 18A, B, C, D) show a notable bathochromic shift for each PE in solution mixed with amyloid, of 23, 27, 35 and 29 nm for PE1+, PE2+, PE3+ and PE1−, respectively, observing only the low-energy band. The high-energy band, less relevant for imaging purposes, was also bathochromically shifted. […] PE1− had similar excitation spectrum (FIG. 18B) with monomer and amyloid, except for a large intensity difference.
Lyophilized HEWL was dissolved at 10 mg/mL in 10 mM pH 3 sodium citrate buffer with 0.1 M NaCl. The solution was incubated in a 70C oil bath and magnetically stirred at 250 rpm for 12 h, and aliquots were withdrawn at half-hour intervals. […] Half of each aliquot was immediately diluted into pH 7.4 phosphate buffer to prevent further influence of acidic conditions and stored at 4C.
(§1) For studies of fluorescence enhancement vs. protein incubation time, dyes were mixed with protein sample in phosphate buffer (10 mM, pH 7.4) at equal monomer concentration of 10 μM in the wells of a standard 96-well plate. Emission spectra were obtained using top read with a SpectraMax M2e plate-reading spectrophotometer (Molecular Devices, Sunnyvale, CA). Experiments were performed in duplicate and errors are reported as standard deviation. For analysis of bound PE excitation and emission spectra and protein-PE energy transfer, PEs (500 nM) were mixed with protein sample (5 μM, monomer basis) in phosphate buffer and the solution transferred to a quartz, fluorometry cuvette. Spectra were obtained on a PTI QuantaMaster 40 steady state spectrofluorometer (HORIBA Scientific, Edison, NJ).

[1] = molecular target: T3, HEWL fibrils incubated for different lengths of time (Gallus gallus, UniProt P00698); test: Fluorescence enhancement of dyes versus HEWL incubation time; assay type: binding, hen; conditions: dye 10 μM, HEWL 10 μM monomer basis
T3 construct: Lyophilized HEWL was dissolved at 10 mg/mL in 10 mM pH 3 sodium citrate buffer with 0.1 M NaCl; purchased Sigma-Aldrich; host or cells: hen egg white; fibrillised in house (pH 3, 70 °C, stirred)
Method: Hen egg white lysozyme (HEWL) was used to form fibrillary amyloid aggregates for use in this study. […] For these experiments. HEWL (Sigma-Aldrich) was incubated at 70′C and a concentration of 350 μM in pH 3 sodium citrate buffer (10 mM) with 100 mM NaCl.
A plot of normalized fluorescence enhancement for all four PEs and Thioflavin T with HEWL fibrils incubated for different lengths of time is shown in FIG. 15. PE1+ and PE2+ track amyloid formation in roughly the same way as ThT, showing a sigmoidal curve with onset of a logarithmic growth phase occurring at the same time, around 1 hour of incubation. The plateau phase, as monitored by fluorescence of any of those three PEs or ThT, appeared at 2 hours incubation.
as §1

HEWL amyloid = molecular target: T4, HEWL amyloid (Gallus gallus, UniProt P00698); test: Binding saturation assay of PEs to HEWL amyloid (Hill fit); design: species or system hen; conditions: for Hill coeffi.: PE binding to HEWL amyloid
T4 construct: Lyophilized HEWL was dissolved at 10 mg/mL in 10 mM pH 3 sodium citrate buffer with 0.1 M NaCl; purchased Sigma-Aldrich; host or cells: hen egg white; fibrillised in house (pH 3, 70 °C, stirred)
Method: Next, binding saturation assays were conducted to quantify the affinity of PE-amyloid binding; data and fitted curves were produced and the fitted parameters are summarized in the last two columns of Table 1. Since the linear fibril binding sites could fit many PEs, fits to binding curves were performed to the Hill equation to capture possible binding cooperativity:
[formula] where x is PE concentration (with protein concentration fixed), y is PE fluorescence intensity. […] Fits to the data for the three cationic PEs produced Fmax values close to the observed saturation value, and the other two parameters are reported as calculated. […] Furthermore, the cooperativity of PE binding increased from almost no cooperativity for PE1+, to some positive cooperativity for PE2+, to still more positive cooperativity for PE3+. The quantitative physical meaning of the Hill parameter is not quite clear except in special cases, but in a general way it is possible to conclude that for the cationic PEs, the shortest PE has non-cooperative binding to HEWL amyloid (Michaelis-Menten binding), and the two longer PEs have increasingly positively cooperative binding. […] The effect of PE1− non-specific binding to HEWL monomers precluded accurate determination of a binding constant for PE1−/amyloid interactions such that a quantitative comparison of binding between the cationic and anionic compounds could not be made.
For determination of binding constant of PEs to amyloid aggregates, PEs were mixed with HEWL amyloid in phosphate buffer at a final concentration of 100 nM-5 μM for PEs and 5 μM (monomer basis) for protein. The solutions were then transferred to a quartz fluorometry cuvette and emission measured at the pertinent wavelength. Experiments were performed in duplicate and errors reported as standard deviation. Hill function fits to PE binding curves were calculated in OriginPro 9.

T4 sequence (P00698 19-147): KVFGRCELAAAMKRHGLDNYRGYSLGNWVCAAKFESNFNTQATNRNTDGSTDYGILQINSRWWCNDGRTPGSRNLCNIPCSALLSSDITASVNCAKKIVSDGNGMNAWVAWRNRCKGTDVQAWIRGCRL
T2 sequence (P00698 19-147): as above
T1 sequence (P00698 19-147): as above
T3 sequence (P00698 19-147): as above

Structure (SMILES) | induced circular dichroism with HEWL amyloid (HEWL amyloid fibrils) | bathochromic shift of excitation spectrum, low-energy band, with amyloid (HEWL amyloids) | blueshifting of the fluorescence maximum with amyloid (HEWL amyloids) | λem (PB w/ HEWL) (HEWL amyloids) | λex (PB w/HEWL), high-energy band (HEWL amyloids) | λex (PB w/HEWL), low-energy band (HEWL amyloids) | HEWL incubation time at which the plateau phase of fluorescence enhancement appears [1] | Kd (HEWL amyloid) | Hill coeffi. (HEWL amyloid) | Kd (HEWL amyloid; HEWL amyloid, Hill fit, read-out: calculated dissociation constant)
CCOC(=O)c1ccc(C#Cc2cc(OCC[N+](C)(C)C)c(C#Cc3ccc(C#Cc4cc(OCC[N+](C)(C)C)c(C#Cc5ccc(C(=O)OCC)cc5)cc4OCC[N+](C)(C)C)cc3)cc2OCC[N+](C)(C)C)cc1 [PE2+] | strong induced CD with a negative Cotton effect | 27 nm | ~10 nm | 445 nm | 337 nm | 426 nm | 2 h | 1150 nM | 1.15 | –
CCOC(=O)c1ccc(C#Cc2cc(OCC[N+](C)(C)C)c(C#Cc3ccc(C#Cc4cc(OCC[N+](C)(C)C)c(C#Cc5ccc(C#Cc6cc(OCC[N+](C)(C)C)c(C#Cc7ccc(C(=O)OCC)cc7)cc6OCC[N+](C)(C)C)cc5)cc4OCC[N+](C)(C)C)cc3)cc2OCC[N+](C)(C)C)cc1 [PE3+] | strong induced CD with a negative Cotton effect | 35 nm | ~10 nm | 453 nm | 335 nm | 434 nm | up to 3.5 hours | – | 1.89 | 858 nM
